According to publication PMC4792557 (Oncotarget, 2015):

Legend:
Assay in all cases: cells
[1] = test system: H23; design: species or system H460, A549, H358; CellTiter-Glo ATP viability of NSCLC cell lines; details: Homo sapiens, NCI-H23, 48 h, read-out: AZD6738 GI50 (uM)
Protocol: (§1) ATP levels were assessed as surrogate measure of viability was assessed using the CellTiter-Glo Luminescent Cell Viability Assay (Promega) and Safire^2 plate reader (Tecan). Raw data were corrected for background luminescence prior to further analysis. […] GI50 values, defined as the dose X at which Y = 50%, were extrapolated from dose response curves. For combination treatments, data were normalized to the mean of untreated controls. Loewe excess matrices were generated using Chalice Analyzer Online (Horizon CombinatoRx) and mean normalized inhibition values. […] Log dose response curves were generated in GraphPad Prism 6 by nonlinear regression (log(inhibitor) vs. normalized response with variable slope) of log-transformed (x = log(x)), normalized data. IC50 values were calculated by Prism 6.

[2] = test system: H358; design: species or system H23, H460, A549; CellTiter-Glo ATP viability of NSCLC cell lines; details: Homo sapiens, NCI-H358, 48 h, read-out: AZD6738 GI50 (uM)
Protocol: as §1

[3] = test system: A549; design: species or system H23, H460, H358; CellTiter-Glo ATP viability of NSCLC cell lines; details: Homo sapiens, A549, 48 h, read-out: AZD6738 GI50 (uM)
Protocol: as §1

[4] = test system: H460; design: species or system H23, A549, H358; CellTiter-Glo ATP viability of NSCLC cell lines; details: Homo sapiens, NCI-H460, 48 h, read-out: AZD6738 GI50 (uM)
Protocol: as §1

GI50 [2]: 6.95 µM
GI50 [3]: 5.42 µM
GI50 [4]: 1.05 µM
Compound: C[C@@H]1COCCN1c1cc(C2([S@](C)(=N)=O)CC2)nc(-c2cc[nH]c3nccc2-3)n1 [AZD6738]
GI50 [1]: 2.38 µM
